In PubChem BioAssay (NCI):
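The compound was tested at five concentrations on cells cultured in 96-well plates, with a 48-hour exposure period. The concentration for 50% growth inhibition is given as GI50. TGI: concentration producing complete growth inhibition.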

Legend:
Assay in all cases: DTP human tumour cell line panel, 48 h
SK-MEL-28 melanoma = test system: SK-MEL-28 melanoma
SK-MEL-2 melanoma = test system: SK-MEL-2 melanoma
HCC-2998 colon = test system: HCC-2998 colon
UACC-62 melanoma = test system: UACC-62 melanoma
MOLT-4 leukemia = test system: MOLT-4 leukemia
EKVX NSCLC = test system: EKVX NSCLC
OVCAR-8 ovarian = test system: OVCAR-8 ovarian
KM12 colon = test system: KM12 colon
OVCAR-3 ovarian = test system: OVCAR-3 ovarian
RPMI-8226 leukemia = test system: RPMI-8226 leukemia

Row | SMILES | TGI (SK-MEL-28 melanoma) | TGI (SK-MEL-2 melanoma) | TGI (HCC-2998 colon) | TGI (UACC-62 melanoma) | TGI (MOLT-4 leukemia) | TGI (EKVX NSCLC) | TGI (OVCAR-8 ovarian) | TGI (KM12 colon) | TGI (OVCAR-3 ovarian) | TGI (RPMI-8226 leukemia) | GI50 (SK-MEL-28 melanoma) | GI50 (SK-MEL-2 melanoma) | GI50 (HCC-2998 colon) | GI50 (UACC-62 melanoma) | GI50 (MOLT-4 leukemia) | GI50 (EKVX NSCLC) | GI50 (OVCAR-8 ovarian) | GI50 (KM12 colon) | GI50 (OVCAR-3 ovarian) | GI50 (RPMI-8226 leukemia)
1 | O=C(O)CC/C(=N\Nc1nsc2ccccc12)c1ccccc1 | > 100 µM | > 100 µM | 90.8 µM | > 100 µM | 91.6 µM | > 100 µM | > 100 µM | > 100 µM | 75.3 µM | 49.6 µM | – | – | – | – | – | – | – | – | – | –
2 | C[C@]12CC[C@@H]3c4ccc(O)cc4CC[C@H]3[C@@H]1C/C(=C\c1ccncc1)C2=O | > 100 µM | 48.7 µM | > 100 µM | 50.9 µM | > 100 µM | > 100 µM | 56.3 µM | 37.6 µM | 50.5 µM | > 100 µM | – | – | – | – | – | – | – | – | – | –
3 | COCCOCOc1ccc(OCc2ccccc2)cc1 | > 100 µM | > 100 µM | > 100 µM | > 100 µM | > 100 µM | 97.3 µM | > 100 µM | > 100 µM | > 100 µM | > 100 µM | – | – | – | – | – | – | – | – | – | –
4 | COC(=O)C1C(C(=O)OC)N(Cc2ccccc2)C(=O)N1Cc1ccccc1 (stereo not given) | > 100 µM | > 100 µM | > 100 µM | > 100 µM | > 100 µM | > 100 µM | > 100 µM | > 100 µM | > 100 µM | > 100 µM | – | – | – | – | – | – | – | – | – | –
5 | C=CCN1C(=O)/C(=C/c2ccccc2)N=C1SC1OC(COC(=O)c2ccccc2)C(OC(=O)c2ccccc2)C1OC(=O)c1ccccc1 (stereo not given) | > 100 µM | > 100 µM | > 100 µM | > 100 µM | > 100 µM | > 100 µM | > 100 µM | > 100 µM | > 100 µM | 87.9 µM | – | – | – | – | – | – | – | – | – | –
6 | C/C(CCOC1CCCCO1)=C(\C)[Si](C)(C)C (stereo not given) | > 100 µM | > 100 µM | > 100 µM | > 100 µM | > 100 µM | > 100 µM | > 100 µM | > 100 µM | > 100 µM | > 100 µM | – | – | – | – | – | – | – | – | – | –
7 | COc1ccc2[nH]c(O)c(/C=c3/cc4c(c(-c5cc(OC)c(OC)c(OC)c5)n3)=Nc3ccccc3-4)c2c1 | > 100 µM | > 100 µM | > 100 µM | > 100 µM | 10.7 µM | > 100 µM | > 100 µM | > 100 µM | > 100 µM | 11.5 µM | 26 µM | 15.9 µM | 34 µM | 13.6 µM | 1.94 µM | > 100 µM | 3.77 µM | 5.04 µM | 8.48 µM | 1.89 µM
8 | C=C(C(=O)C(=O)Oc1ccc(Cl)cc1)C(=O)c1ccc(C)cc1 | > 100 µM | > 100 µM | 76 µM | > 100 µM | > 100 µM | > 100 µM | > 100 µM | 42.5 µM | > 100 µM | > 100 µM | – | – | – | – | – | – | – | – | – | –
9 | CC(C)OP(=O)(OC(C)C)c1c(Nc2ccccc2)n[nH]c1N | > 100 µM | > 100 µM | > 100 µM | > 100 µM | > 100 µM | > 100 µM | > 100 µM | > 100 µM | > 100 µM | > 100 µM | – | – | – | – | – | – | – | – | – | –
10 | C#CCCCCC#Cc1ccccc1C(=O)OC | > 100 µM | > 100 µM | > 100 µM | 94.7 µM | 38.3 µM | > 100 µM | 31.5 µM | > 100 µM | > 100 µM | 41.5 µM | – | – | – | – | – | – | – | – | – | –
11 | CCOC(=O)c1csc(NC(=O)CCN(CC)CC)n1 | 62 µM | > 100 µM | > 100 µM | > 100 µM | 90.3 µM | > 100 µM | 95.9 µM | 52.8 µM | 69 µM | > 100 µM | – | – | – | – | – | – | – | – | – | –
12 | CC1=C(O)C(=O)[C@@H]2O[C@@H]2C1=O | 16.7 µM | 38.1 µM | 35.6 µM | 21.7 µM | 10.9 µM | 33.9 µM | 24.7 µM | 27.3 µM | 17.4 µM | 16.5 µM | – | – | – | – | – | – | – | – | – | –
